According to patent US11180462B2, “Microbiocidal oxadiazole derivatives” (SYNGENTA PARTICIPATIONS AG, priority 2015, dated 2021):

What was measured:
[1] = system: Puccinia recondita f. Sp. Tritici; test: Fungicidal activity against Puccinia recondita f. sp. tritici / wheat / leaf disc preventative (brown rust); type: in vivo; conditions: foliar, 200 ppm in the applied formulation, wheat leaf segments, preventative, compared to untreated control leaf disks, read-out: disease control
Procedure, shortened: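 Percent disease control relative to untreated check segments is scored once disease develops, 7 to 9 days after application. Wheat cv. Kanzler segments receive compound spray (200 ppm in formulation) one day before spore inoculation, then sit at 19° C. and 75% rh under 12 h light/12 h dark.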

[2] = system: Puccinia recondita f. Sp. Tritici; test: Fungicidal activity against Puccinia recondita f. sp. tritici / wheat / leaf disc curative (brown rust); type: in vivo; conditions: foliar, 24 h, 200 ppm in the applied formulation, wheat leaf segments, curative (applied 1 day after inoculation), compared to untreated control leaf disks, read-out: disease control
Procedure, shortened: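 Inoculate cv. Kanzler segments on agar; hold dark, 19° C, 75% RH. Spray diluted formulated compound at day 1. Incubate 12 h light/12 h dark, same temperature and humidity; score % control vs untreated 6–8 days later.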

Phakopsora Pachyrhizi = test: Fungicidal activity against Phakopsora pachyrhizi / soybean / leaf disc preventative (Asian soybean rust); type: in vivo; conditions: foliar, 200 ppm in the applied formulation, soybean leaf disks, compared to untreated control leaf disks, read-out: disease control
Procedure, shortened: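 Scored 12 to 14 days post-application as percent control relative to untreated check discs, rust spores were sprayed under the disc one day after compound treatment. Incubation: 20°C, 75% rh, first 24–36 h in darkness, then 12 h daily light; discs kept on water agar.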

[3] = system: Glomerella lagenarium (Colletotrichum lagenarium); test: Fungicidal activity against Glomerella lagenarium (Colletotrichum lagenarium) liquid culture / cucumber / preventative (anthracnose); type: cell-based; conditions: Colletotrichum orbiculare; 20 ppm in the applied formulation; liquid culture (PDB), growth inhibition measured photometrically after 3 to 4 days; compared to untreated control; read-out: disease control
Procedure, shortened: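 Percent activity against the untreated check was derived from photometric growth measurements made 2 to 7 days after conidia in potato dextrose broth were combined with compound at 20 ppm. Cultures were kept dark at 24 °C and 96% humidity.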

CCC(COC)C(=O)N(Cc1ccc(-c2noc(C(F)(F)F)n2)cc1)OC (stereo not shown) [Compound 1.57, N-methoxy-2-(methoxymethyl)-N-[[4-[5-(trifluoromethyl)-1,2,4-oxadiazol-3-yl]phenyl]methyl]-butanamide]
≥ 80%: pest or weed control at 200 ppm [1] | pest or weed control at 200 ppm [2] | pest or weed control at 200 ppm (Phakopsora Pachyrhizi) | inhibition of growth at 20 ppm [3]

COCCCC(=O)N(Cc1ccc(-c2noc(C(F)(F)F)n2)cc1)OC [Compound 1.59, N,4-dimethoxy-N-[[4-(5-(trifluoromethyl)-1,2,4-oxadiazol-3-yl]phenyl]methyl]-butanamide]
≥ 80%: pest or weed control at 200 ppm [1] | pest or weed control at 200 ppm [2] | pest or weed control at 200 ppm (Phakopsora Pachyrhizi) | inhibition of growth at 20 ppm [3]

CON(Cc1ccc(-c2noc(C(F)(F)F)n2)cc1)C(=O)CC1CC1(F)F (stereo not shown) [Compound 1.64, 2-(2.2-difluorocyclopropyl)-N-methoxy-N-[[4-[5-(trifluoromethyl)-1,2,4-oxadiazol-3-yl]phenyl]methyl]-acetamide]
≥ 80%: pest or weed control at 200 ppm [1] | pest or weed control at 200 ppm [2] | pest or weed control at 200 ppm (Phakopsora Pachyrhizi) | inhibition of growth at 20 ppm [3]

C#CCOC(=O)NC(C(=O)N(Cc1ccc(-c2noc(C(F)(F)F)n2)cc1)OC)C(C)C (stereo not shown) [Compound 1.77, prop-2-ynyl N-[1-[methoxy-[[4-[5-(trifluoromethyl)-1,2,4-oxadiazol-3-yl]phenyl]methyl]carbamoyl]-2-methyl-propyl]carbamate]
≥ 80%: pest or weed control at 200 ppm [1] | pest or weed control at 200 ppm [2] | pest or weed control at 200 ppm (Phakopsora Pachyrhizi) | inhibition of growth at 20 ppm [3]

COC(C)C(=O)N(Cc1ccc(-c2noc(C(F)(F)F)n2)cc1)OC (stereo not shown) [Compound 1.81, N,2-dimethoxy-N-[[4-[5-(trifluoromethyl)-1,2,4-oxadiazol-3-yl]phenyl]methyl]-propanamide]
≥ 80%: pest or weed control at 200 ppm [1] | pest or weed control at 200 ppm [2] | pest or weed control at 200 ppm (Phakopsora Pachyrhizi) | inhibition of growth at 20 ppm [3]

O=C(N(Cc1ccc(-c2noc(C(F)(F)F)n2)cc1)C1CC1)C1(C(F)(F)F)CC1 [Compound 1.83, N-cyclopropyl-1-(trifluoromethyl)-N-[[4-[5-(trifluoromethyl)-1,2,4-oxadiazol-3-yl]phenyl]methyl]-cyclopropane-carboxamide]
≥ 80%: pest or weed control at 200 ppm [1] | pest or weed control at 200 ppm [2] | pest or weed control at 200 ppm (Phakopsora Pachyrhizi) | inhibition of growth at 20 ppm [3]

C#CCCC(=O)N(Cc1ccc(-c2noc(C(F)(F)F)n2)cc1)C1CC1 [Compound 1.86, N-cyclopropyl-N-[[4-[5-(trifluoromethyl)-1,2,4-oxadiazol-3-yl]phenyl]methyl]-pent-4-ynamide]
≥ 80%: pest or weed control at 200 ppm [1] | pest or weed control at 200 ppm [2] | pest or weed control at 200 ppm (Phakopsora Pachyrhizi) | inhibition of growth at 20 ppm [3]

CC(C)C(=O)N(Cc1ccc(-c2noc(C(F)(F)F)n2)cc1)C1CC1 [Compound 1.87, N-cyclopropyl-2-methyl-N-[[4-[5-(trifluoromethyl)-1,2,4-oxadiazol-3-yl]phenyl]methyl]-propanamide]
≥ 80%: pest or weed control at 200 ppm [1] | pest or weed control at 200 ppm [2] | pest or weed control at 200 ppm (Phakopsora Pachyrhizi) | inhibition of growth at 20 ppm [3]

O=C(C1CC1(F)F)N(Cc1ccc(-c2noc(C(F)(F)F)n2)cc1)C1CC1 (stereo not shown) [Compound 1.89, N-cyclopropyl-2,2-difluoro-N-[[4-[5-(trifluoromethyl)-1,2,4-oxadiazol-3-yl]phenyl]methyl]-cyclopropane-carboxamide]
≥ 80%: pest or weed control at 200 ppm [1] | pest or weed control at 200 ppm [2] | pest or weed control at 200 ppm (Phakopsora Pachyrhizi) | inhibition of growth at 20 ppm [3]

C=CCCC(=O)N(Cc1ccc(-c2noc(C(F)(F)F)n2)cc1)C1CC1 [Compound 1.91, N-cyclopropyl-N-[[4-[5-(trifluoromethyl)-1,2,4-oxadiazol-3-yl]phenyl]methyl]-pent-4-enamide]
≥ 80%: pest or weed control at 200 ppm [1] | pest or weed control at 200 ppm [2] | pest or weed control at 200 ppm (Phakopsora Pachyrhizi) | inhibition of growth at 20 ppm [3]

O=C(N(Cc1ccc(-c2noc(C(F)(F)F)n2)cc1)C1CC1)C1(C(F)(F)F)CCC1 [Compound 1.92, N-cyclopropyl-1-(trifluoromethyl)-N-[[4-[5-(trifluoromethyl)-1,2,4-oxadiazol-3-yl]phenyl]methyl]-cyclobutane-carboxamide]
≥ 80%: pest or weed control at 200 ppm [1] | pest or weed control at 200 ppm [2] | pest or weed control at 200 ppm (Phakopsora Pachyrhizi) | inhibition of growth at 20 ppm [3]

CC(=O)CC(C)C(=O)N(Cc1ccc(-c2noc(C(F)(F)F)n2)cc1)C1CC1 (stereo not shown) [Compound 1.95, N-cyclopropyl-2-methyl-4-oxo-N-[[4-[5-(trifluoromethyl)-1,2,4-oxadiazol-3-yl]phenyl]methyl]-pentanamide]
≥ 80%: pest or weed control at 200 ppm [1] | pest or weed control at 200 ppm [2] | pest or weed control at 200 ppm (Phakopsora Pachyrhizi) | inhibition of growth at 20 ppm [3]

CCCC(=O)N(Cc1ccc(-c2noc(C(F)(F)F)n2)cc1)C1CC1 [Compound 1.97, N-cyclopropyl-N-[[4-[5-(trifluoromethyl)-1,2,4-oxadiazol-3-yl]phenyl]methyl]-butanamide]
≥ 80%: pest or weed control at 200 ppm [1] | pest or weed control at 200 ppm [2] | pest or weed control at 200 ppm (Phakopsora Pachyrhizi) | inhibition of growth at 20 ppm [3]

O=C(CC1CC1)N(Cc1ccc(-c2noc(C(F)(F)F)n2)cc1)C1CC1 [Compound 1.99, N,2-dicyclopropyl-N-[[4-[5-(trifluoromethyl)-1,2,4-oxadiazol-3-yl]phenyl]methyl]-acetamide]
≥ 80%: pest or weed control at 200 ppm [1] | pest or weed control at 200 ppm [2] | pest or weed control at 200 ppm (Phakopsora Pachyrhizi) | inhibition of growth at 20 ppm [3]

O=C(C1CCCC1)N(Cc1ccc(-c2noc(C(F)(F)F)n2)cc1)C1CC1 [Compound 1.100, N-cyclopropyl-N-[[4-[5-(trifIuoromethyl)-1,2,4-oxadiazol-3-yl]phenyl]methyl]-cyclopentane-carboxamide]
≥ 80%: pest or weed control at 200 ppm [1] | pest or weed control at 200 ppm [2] | pest or weed control at 200 ppm (Phakopsora Pachyrhizi) | inhibition of growth at 20 ppm [3]

O=C(CCC(F)(F)F)N(Cc1ccc(-c2noc(C(F)(F)F)n2)cc1)C1CC1 [Compound 1.101, N-cyclopropyl-4,4,4-trifluoro-N-[[4-[5-(trifluoromethyl)-1,2,4-oxadiazol-3-yl]phenyl]methyl]-butanamide]
≥ 80%: pest or weed control at 200 ppm [1] | pest or weed control at 200 ppm [2] | pest or weed control at 200 ppm (Phakopsora Pachyrhizi) | inhibition of growth at 20 ppm [3]

O=C(Cc1cccnc1)N(Cc1ccc(-c2noc(C(F)(F)F)n2)cc1)C1CC1 [Compound 1.102, N-cyclopropyl-2-(3-pyridyl)-N-[[4-[5-(trifluoromethyl)-1,2,4-oxadiazol-3-yl]phenyl]methyl]-acetamide]
≥ 80%: pest or weed control at 200 ppm [1] | pest or weed control at 200 ppm [2] | pest or weed control at 200 ppm (Phakopsora Pachyrhizi) | inhibition of growth at 20 ppm [3]

O=C(C1CCOC1)N(Cc1ccc(-c2noc(C(F)(F)F)n2)cc1)C1CC1 (stereo not shown) [Compound 1.103, N-cyclopropyl-N-[[4-[5-(trifluoromethyl)-1,2,4-oxadiazol-3-yl]phenyl]methyl]-tetrahydrofuran-3-carboxamide]
≥ 80%: pest or weed control at 200 ppm [1] | pest or weed control at 200 ppm [2] | pest or weed control at 200 ppm (Phakopsora Pachyrhizi) | inhibition of growth at 20 ppm [3]

O=C(C1CSC1)N(Cc1ccc(-c2noc(C(F)(F)F)n2)cc1)C1CC1 [Compound 1.104, N-cyclopropyl-N-[[4-[5-(trifluoromethyl)-1,2,4-oxadiazol-3-yl]phenyl]methyl]-thietane-3-carboxamide]
≥ 80%: pest or weed control at 200 ppm [1] | pest or weed control at 200 ppm [2] | pest or weed control at 200 ppm (Phakopsora Pachyrhizi) | inhibition of growth at 20 ppm [3]

COCCC(=O)N(Cc1ccc(-c2noc(C(F)(F)F)n2)cc1)C1CC1 [Compound 1.106, N-cyclopropyl-3-methoxy-N-[[4-[5-(trifluoromethyl)-1,2,4-oxadiazol-3-yl]phenyl]methyl]-propanamide]
≥ 80%: pest or weed control at 200 ppm [1] | pest or weed control at 200 ppm [2] | pest or weed control at 200 ppm (Phakopsora Pachyrhizi) | inhibition of growth at 20 ppm [3]

CC(C)CC(=O)N(Cc1ccc(-c2noc(C(F)(F)F)n2)cc1)C1CC1 [Compound 1.109, N-cyclopropyl-3-methyl-N-[[4-[5-(trifluoromethyl)-1,2,4-oxadiazol-3-yl]phenyl]methyl]-butanamide]
≥ 80%: pest or weed control at 200 ppm [1] | pest or weed control at 200 ppm [2] | pest or weed control at 200 ppm (Phakopsora Pachyrhizi) | inhibition of growth at 20 ppm [3]

CC(C)(CCl)C(=O)N(Cc1ccc(-c2noc(C(F)(F)F)n2)cc1)C1CC1 [Compound 1.110, 3-chloro-N-cyclopropyl-2,2-dimethyl-N-[[4-[5-(trifluoromethyl)-1,2,4-oxadiazol-3-yl]phenyl]methyl]-propanamide]
≥ 80%: pest or weed control at 200 ppm [1] | pest or weed control at 200 ppm [2] | pest or weed control at 200 ppm (Phakopsora Pachyrhizi) | inhibition of growth at 20 ppm [3]
